Measured values as given in patent US20030089034A1, “Formulation and method for increasing the essential oil content in aromatic crops” (priority 2001, published 2003).

How the values were obtained:
Type in all cases: in vivo
[1] = test system: Pelargonium graveolens cv. Bipuli; experiment: Large scale field testing at several concentrations, essential oil content; conditions: for Content of Essential Oil (%): distilled 15 days after spray, water 0.16, LSD (p = 0.05) 0.01
Protocol: (§1) In the present example, field experiments were conducted, wherein 6 larger plots of Pelargonium graveolens cv. Bipuli (about 25 m^2) were sprayed with solutions of DL-2 amino butyric acid at several different concentrations. An equal number of plots sprayed with sterilized distilled water served as a control group. At least 20 samples of herbage from the sprayed plots and at least 20 samples of herbage from the control plots were distilled in Clevenger type glass apparatus 15 days after spray.

Mentha arvensis cv. Kosi [2] = experiment: Optimal crop maturity stage for chemical application, essential oil content; conditions: 2 mM spray, LSD (p = 0.05) 0.07
Protocol: In this example, three of the chemicals described above were further investigated to determine the optimal crop maturity stage for applying the formulation. The three chemicals used in this example were DL-2 amino butyric acid, isonicotinamide, and salicylic acid, all at concentrations of 2 mM. The solutions were tested on Mentha arvensis cv. Kosi planted in a randomized block design with 5 replications. In these experiments, the crops were sprayed at 4 different stages of growth and development including 10-day-old crops, 50-day-old crops, 80-day-old crops, and 100-day-old crops.

Mentha arvensis cv. Kosi [3] = experiment: Further large plot field testing at about 206 mg/L, essential oil content
Protocol: as §1
(§2) Further field testing involved samples of herbage of both Pelargonium graveolens cv. Bipuli and Mentha arvensis cv. Kosi being treated with a solution of DL-2 amino butyric acid at a concentration of about 206 mg/L in water. Similarly to the above tests, large plots were sprayed with the DL-2 amino butyric acid solution, and samples of herbage from both the sprayed plots and the control plots were examined for their essential oil content.

[4] = test system: Pelargonium graveolens cv. Bipuli; experiment: as above
Protocol: as §1, §2

[5] = test system: Chamomilla recutita, Artemisia pallens, Pelargonium graveolens, and Mentha arvensis; experiment: Screening of resistance-inducing chemicals on potted aromatic plants under glasshouse conditions; conditions: plants in pots, four aromatic plants
Excerpt: In this example, fifteen chemicals known to induce resistance in plants were screened by applying the chemicals to four varieties of aromatic plants in pots. The four aromatic plants used in this screening included: Chamomilla recutita, Artemisia pallens, Pelargonium graveolens, and Mentha arvensis. […] These eight chemicals include isonicotinamide, DL-2 amino butyric acid, 4-chlorosalicylic acid, 2-amino isobutyric acid, o-acetyl salicylic acid, amino salicylic acid, salicylic acid, and 5-nitrosalicylic acid.

Mentha arvensis cv. Kosi [6] = experiment: Field testing of identified compounds, essential oil content; conditions: for Content of Essential Oil (%): 2 mM spray at onset of maturity, 15 days before harvest, water control 0.66, LSD (p = 0.05) 0.06
Protocol: (§3) The eight chemicals selected in the previous example for their effects on aromatic plants were subsequently field tested using 2 mM solutions of each chemical in sterilized distilled water. The field tests were performed on Pelargonium graveolens cv. Bipuli and Mentha arvensis cv. […] The plants were sprayed with the 2 mM solutions of the chemicals at the onset of maturity, 15 days before harvest. Plants sprayed with sterilized distilled water served as a control group.

[7] = test system: Pelargonium graveolens cv. Bipuli; experiment: as above; conditions: for Content of Essential Oil (%): 2 mM spray at onset of maturity, 15 days before harvest, water control 0.13, LSD (p = 0.05) 0.01; for change in essential oil content (in words): stated for the field tests of Table 1 (both plants) without naming the plant
Protocol: as §3

[8] = age of crop at spray 10 days, water 0.67
[9] = age of crop at spray 50 days, water 0.67
[10] = age of crop at spray 80 days, water 0.68
[11] = age of crop at spray 100 days, water 0.66
[12] = about 206 mg/L, compared to herbage samples treated only with water
[13] = 2 mM spray, versus water control

CCC(N)C(=O)O (racemic) [DL-2 amino butyric acid]
Content of Essential Oil (%) ([1]; 0.1 mM solution): 0.16% | Content of Essential Oil (%) ([1]; 1.0 mM solution): 0.17% | increase in essential oil content ([1]; 2 mM and 4 mM, versus water): about 25% | Content of Essential Oil (%) ([1]; 2.0 mM solution): 0.20% | Content of Essential Oil (%) ([1]; 4.0 mM solution): 0.20% | Content of Essential Oil (%) (Mentha arvensis cv. Kosi [2]; [8]): 0.80% | Content of Essential Oil (%) (Mentha arvensis cv. Kosi [2]; [9]): 0.82% | Content of Essential Oil (%) (Mentha arvensis cv. Kosi [2]; [10]): 0.81% | Content of Essential Oil (%) (Mentha arvensis cv. Kosi [2]; [11]): 0.84% | Content of Essential Oil (Mean % ± S.E.) (Mentha arvensis cv. Kosi [3]; about 206 mg/L in water, n ≧ 20 herbage samples, water 0.74 ± 0.02): 0.89 ± 0.02% | increase in essential oil content (Mentha arvensis cv. Kosi [3]; [12]): about 20% | Content of Essential Oil (Mean % ± S.E.) ([4]; about 206 mg/L in water, n ≧ 20 herbage samples, water 0.14 ± 0.01): 0.19 ± 0.01% | increase in essential oil content [4, 12]: about 36% | improving growth and herbage and/or essential oil content [5]: particularly effective | Content of Essential Oil (%) (Mentha arvensis cv. Kosi [6]): 0.84% | increase in essential oil content (Mentha arvensis cv. Kosi [6]; [13]): about 27% | Content of Essential Oil (%) [7]: 0.19% | increase in essential oil content [7, 13]: about 46%

CC(C)(N)C(=O)O [2-amino isobutyric acid]
improving growth and herbage and/or essential oil content [5]: particularly effective | Content of Essential Oil (%) (Mentha arvensis cv. Kosi [6]): 0.72% | Content of Essential Oil (%) [7]: 0.12%

O=C(O)c1ccc(Cl)cc1O [4-chloro salicylic acid]
improving growth and herbage and/or essential oil content [5]: particularly effective | Content of Essential Oil (%) (Mentha arvensis cv. Kosi [6]): 0.68% | Content of Essential Oil (%) [7]: 0.13%

O=C(O)c1cc([N+](=O)[O-])ccc1O [5-nitrosalicylic acid]
improving growth and herbage and/or essential oil content [5]: particularly effective | Content of Essential Oil (%) (Mentha arvensis cv. Kosi [6]): 0.73% | Content of Essential Oil (%) [7]: 0.13%

NC(=O)c1ccncc1 [isonicotinamide]
Content of Essential Oil (%) (Mentha arvensis cv. Kosi [2]; [8]): 0.71% | Content of Essential Oil (%) (Mentha arvensis cv. Kosi [2]; [9]): 0.70% | Content of Essential Oil (%) (Mentha arvensis cv. Kosi [2]; [10]): 0.70% | Content of Essential Oil (%) (Mentha arvensis cv. Kosi [2]; [11]): 0.70% | improving growth and herbage and/or essential oil content [5]: particularly effective | Content of Essential Oil (%) (Mentha arvensis cv. Kosi [6]): 0.70% | Content of Essential Oil (%) [7]: 0.14% | change in essential oil content (in words) ([7]; 2 mM spray): slight increase

O=C(O)c1ccccc1O [salicylic acid]
Content of Essential Oil (%) (Mentha arvensis cv. Kosi [2]; [8]): 0.70% | Content of Essential Oil (%) (Mentha arvensis cv. Kosi [2]; [9]): 0.68% | Content of Essential Oil (%) (Mentha arvensis cv. Kosi [2]; [10]): 0.70% | Content of Essential Oil (%) (Mentha arvensis cv. Kosi [2]; [11]): 0.70% | improving growth and herbage and/or essential oil content [5]: particularly effective | Content of Essential Oil (%) (Mentha arvensis cv. Kosi [6]): 0.70% | Content of Essential Oil (%) [7]: 0.11% | change in essential oil content (in words) ([7]; 2 mM spray): slight reduction
